{"source": "patent US20160073662A1", "about": "“PRESERVATIVE AND ADDITIVE FOR FOOD AND FEED” (priority 2014, published 2016)", "assay": "Contact of acid solution with human skin", "conditions": "solution with a pH of less than 0.5"}
{"smiles": "O=S(=O)(O)O", "note": "[sulfuric acid]", "values": [{"measurement": "irritation of hand put into solution", "value": "an irritation would occur"}]}
